Laboratory results taken from ChEMBL document CHEMBL1153080, “Cytotoxicity mechanisms of pyrazino[1,2-b]isoquinoline-4-ones and SAR studies” (2009).
Calls of active or inactive are those of the source. The calls are words filed in the database; no cut-off is given here.

Experiments:
A549 [1] = assay: Cytotoxicity against human A549 cells at < […] after 48 hrs by SRB assay; assay type: functional, cell-based
MDA-MB-231 = assay: Cytotoxicity against human MDA-MB-231 cells at < […] after 48 hrs by SRB assay; assay type: functional, cell-based
HT-29 [2] = assay: Cytotoxicity against human HT-29 cells at < […] after 48 hrs by SRB assay; assay type: functional, cell-based
A549 [3] = assay: Growth inhibition of human A549 cells; assay type: functional
HT-29 [4] = assay: Cell cycle arrest in human HT-29 cells assessed as accumulation at G2/M phase at 41 ug/mL after 72 hrs using propidium iodide staining by flow cytometry; assay type: functional
HT-29 [5] = assay: Induction Wee1 protein degradation in 300 uM protein synthesis inhibitor cycloheximide pretreated human HT-29 cells at 41 ug/mL after 6 to 36 hrs by Western blotting; assay type: functional, cell-based
HT-29 [6] = assay: Induction cdc2 protein degradation in 300 uM protein synthesis inhibitor cycloheximide pretreated human HT-29 cells at 41 ug/mL after 6 to 36 hrs by Western blotting; assay type: functional, cell-based
HT-29 [7] = assay: Induction of apoptosis in human HT-29 cells at 41 ug/mL after 24 hrs using propidium iodide staining by flow cytometry; assay type: functional
HT-29 [8] = assay: Cell cycle arrest in human HT-29 cells assessed as accumulation at G2/M phase at 41 ug/mL after 24 hrs using propidium iodide staining by flow cytometry; assay type: functional
HT-29 [9] = assay: Cell cycle arrest in human HT-29 cells assessed as accumulation at G1 phase at 41 ug/mL after 72 hrs using propidium iodide staining by flow cytometry; assay type: functional
HT-29 [10] = assay: Cell cycle arrest in human HT-29 cells assessed as accumulation at S phase at 41 ug/mL after 72 hrs using propidium iodide staining by flow cytometry; assay type: functional
HT-29 [11] = assay: Cell cycle arrest in human HT-29 cells assessed as accumulation at G1 phase at 41 ug/mL after 24 hrs using propidium iodide staining by flow cytometry; assay type: functional
HT-29 [12] = assay: Induction of DNA damage signaling pathways in human HT-29 cells assessed as Chk2 phosphorylation at 41 ug/mL after 24 hrs by Western blotting; assay type: functional, cell-based
HT-29 [13] = assay: Cell cycle arrest in human HT-29 cells assessed as accumulation at S phase at 41 ug/mL after 24 hrs using propidium iodide staining by flow cytometry; assay type: functional
HT-29 [14] = assay: Induction of apoptosis in human HT-29 cells at 41 ug/mL after 72 hrs using propidium iodide staining by flow cytometry; assay type: functional
HT-29 [15] = assay: Induction of apoptosis in 0.2 ug/mL nocodazole pretreated human HT-29 cells at 41 ug/mL after 72 hrs using propidium iodide staining by flow cytometry; assay type: functional
HT-29 [16] = assay: Reduction of phosphorylated cdc2 protein level in 0.2 ug/mL nocodazole pretreated human HT-29 cells at 41 ug/mL after 24 to 72 hrs by Western blotting; assay type: functional, cell-based
HT-29 [17] = assay: Cell cycle arrest in 0.2 ug/mL nocodazole pretreated human HT-29 cells assessed as accumulation at G2/M phase at 41 ug/mL after 72 hrs using propidium iodide staining by flow cytometry; assay type: functional
HT-29 [18] = assay: Cytotoxicity against human HT-29 cells assessed as reduction in cell viability at 41 ug/mL after 48 hrs by MTT assay; assay type: functional; details: HT-29, 48 h
HT-29 [19] = assay: Induction of DNA damage signaling pathways in human HT-29 cells assessed as p53 phosphorylation at 41 ug/mL after 24 hrs by Western blotting; assay type: functional, cell-based
HT-29 [20] = assay: Induction Wee1 protein degradation in 10 uM proteasome inhibitor MG132 pretreated human HT-29 cells at 41 ug/mL after 6 to 36 hrs by Western blotting; assay type: functional, cell-based
HT-29 [21] = assay: Growth inhibition of human HT-29 cells; assay type: functional
HT-29 [22] = assay: Cell cycle arrest in 0.2 ug/mL nocodazole pretreated human HT-29 cells assessed as accumulation at G1 phase at 41 ug/mL after 72 hrs using propidium iodide staining by flow cytometry; assay type: functional
HT-29 [23] = assay: Cell cycle arrest in 0.2 ug/mL nocodazole pretreated human HT-29 cells assessed as accumulation at S phase at 41 ug/mL after 72 hrs using propidium iodide staining by flow cytometry; assay type: functional
HT-29 [24] = assay: Induction cdc2 protein degradation in human HT-29 cells at 41 ug/mL after 24 to 60 hrs by Western blotting; assay type: functional, cell-based
HT-29 [25] = assay: Induction cdc2 protein degradation in 10 uM proteasome inhibitor MG132 pretreated human HT-29 cells at 41 ug/mL after 6 to 36 hrs by Western blotting; assay type: functional, cell-based
HT-29 [26] = assay: Induction Cyclin B1 protein degradation in human HT-29 cells at 41 ug/mL after 24 to 60 hrs by Western blotting; assay type: functional, cell-based
HT-29 [27] = assay: Induction of increase in histone gamma-H2A.X levels in human HT-29 cells at 41 ug/mL after 24 to 60 hrs by Western blotting; assay type: functional, cell-based
HT-29 [28] = assay: Induction of DNA damage signaling pathways in human HT-29 cells assessed as Chk1 phosphorylation at 41 ug/mL after 24 hrs by Western blotting; assay type: functional, cell-based
HT-29 [29] = assay: Induction Wee1 protein degradation in human HT-29 cells at 41 ug/mL after 24 to 60 hrs by Western blotting; assay type: functional, cell-based

Compound: COc1c(C)c(OC)c(OC)c2c1C[C@H]1CN(C)C[C@H]3OC[C@@H]2N13 (relative stereo)
- inhibition (A549 [1]): inactive
- inhibition (MDA-MB-231): inactive
- inhibition (HT-29 [2]): inactive

Compound: COc1c(C)c(OC)c(OC)c2c1C[C@H]1[C@@H](O)N(C(=O)OC(C)C)CC(=O)N1[C@H]2COCc1ccccc1
- GI (A549 [3]): 5.68 ×10⁻⁶ M

Compound: COc1c(C)c(OC)c(OC)c2c1C[C@H]1CN(C(=O)OC(C)C)C[C@@H](C#N)N1[C@H]2CO (relative stereo)
- inhibition (A549 [1]): inactive
- inhibition (MDA-MB-231): inactive
- inhibition (HT-29 [2]): inactive

Compound: COc1c(C)c(OC)c(OC)c2c1C[C@H]1CN(C(=O)OC(C)C)CC(=O)N1[C@H]2CO[Si](c1ccccc1)(c1ccccc1)C(C)(C)C (relative stereo)
- inhibition (A549 [1]): inactive
- inhibition (MDA-MB-231): inactive
- inhibition (HT-29 [2]): inactive

Compound: COc1c(C)c(OC)c(OC)c2c1C[C@H]1CN(C(=O)OC(C)C)CC(=O)N1[C@H]2CO
- inhibition (A549 [1]): inactive
- inhibition (MDA-MB-231): inactive
- inhibition (HT-29 [2]): inactive

Compound: COc1c(C)c(OC)c(OC)c2c1C[C@H]1CN(C(=O)OC(C)C)C[C@H]3OC[C@@H]2N13 (relative stereo)
- inhibition (A549 [1]): inactive
- inhibition (MDA-MB-231): inactive
- inhibition (HT-29 [2]): inactive

Compound: COc1c(C)c(OC)c(OC)c2c1C[C@H]1CN(C(=O)OC(C)C)C[C@@H](C#N)N1[C@H]2COC(=O)/C=C/c1ccccc1 (relative stereo)
- inhibition (A549 [1]): inactive
- inhibition (MDA-MB-231): inactive
- inhibition (HT-29 [2]): inactive

Compound: COc1c(C)c(OC)c(OC)c2c1C[C@H]1CN(C(=O)OC(C)C)CC(=O)N1[C@H]2COCc1ccccc1
- Activity (HT-29 [4]): 10.4%
- Activity (HT-29 [5]): Active
- Activity (HT-29 [6]): Active
- Activity (HT-29 [7]): 4.3%
- Activity (HT-29 [8]): 16.4%
- Activity (HT-29 [9]): 45.9%
- Activity (HT-29 [10]): 12.8%
- Activity (HT-29 [11]): 61.4%
- Activity (HT-29 [12]): inactive
- Activity (HT-29 [13]): 15.2%
- Activity (HT-29 [14]): 29.9%
- Activity (HT-29 [15]): 35.6%
- Activity (HT-29 [16]): Active
- Activity (HT-29 [17]): 18.3%
- inhibition at 41 µg/mL (HT-29 [18]): 80%
- Activity (HT-29 [19]): inactive
- Activity (HT-29 [20]): inactive
- GI (HT-29 [21]): 1.95 ×10⁻⁷ M
- Activity (HT-29 [22]): 31%
- inhibition (A549 [1]): Active
- Activity (HT-29 [23]): 13.4%
- Activity (HT-29 [24]): inactive
- Activity (HT-29 [25]): Active
- Activity (HT-29 [26]): inactive
- Activity (HT-29 [27]): inactive
- inhibition (MDA-MB-231): Active
- Activity (HT-29 [28]): inactive
- Activity (HT-29 [29]): inactive
- inhibition (HT-29 [2]): Active

Compound: COc1c(C)c(OC)c(OC)c2c1C[C@H]1CN(C(=O)OC(C)C)C[C@@H](C#N)N1[C@H]2COC(=O)c1cccc2ccccc12 (relative stereo)
- inhibition (A549 [1]): inactive
- inhibition (MDA-MB-231): inactive
- inhibition (HT-29 [2]): inactive

Compound: COc1c(C)c(OC)c(OC)c2c1C[C@H]1CNCC(=O)N1[C@H]2CO (relative stereo)
- inhibition (A549 [1]): inactive
- inhibition (MDA-MB-231): inactive
- inhibition (HT-29 [2]): inactive

Compound: COc1c(C)c(OC)c(OC)c2c1C[C@H]1CN(C)CC(=O)N1[C@H]2CO (relative stereo)
- inhibition (A549 [1]): inactive
- inhibition (MDA-MB-231): inactive
- inhibition (HT-29 [2]): inactive
